SMILES strings stand for the structures. In brackets after ≈: the same amount, converted by molar mass. Activity calls are given as the source filed them. The calls are words filed in the database; no cut-off is given here.

We go through ten compounds from ChEMBL document CHEMBL1909605, “Cytotoxic and antivascular 1-methyl-4-(3-fluoro-4-methoxyphenyl)-5-(halophenyl)-imidazoles” (Bioorg Med Chem Lett, 2011).

Test [1] is described as follows: Growth inhibition of human KB-3-1 cells after 5 days by MTT assay. The class given is functional, cell-based. The settings on record: KB 3-1, 120 h.
The test system of the next test is HUVEC. Put plainly: Antiangiogenic activity against human HUVEC cells assessed as suppression of tube formation after 20 hrs incubation by calcein staining-based fluorescent microscopy. The class given is functional, cell-based.
A further test relates to PtK2. Nature of the test: Disruption of microtubule network in potoroo PtK2 cells at 10 ug/mL after 16 hrs by immunofluorescence staining method. The class given is cell-based. Particulars: Potorous tridactylus.
A short description of test [2]: Growth inhibition of rat kangaroo PtK2 cells after 5 days by MTT assay. The class given is cell-based. Particulars: Potorous tridactylus, PtK2, 120 h.
A further test deals with Tubulin (Sus scrofa) (UniProt P02554+P02550). Put plainly: Inhibition of pig porcine tubulin polymerization at 25 ug/mL by turbidimetric method. The class given is protein assay. The settings on record: at 25 µg/mL.
Tubulin (Sus scrofa), sequence (P02550 whole entry, looked up): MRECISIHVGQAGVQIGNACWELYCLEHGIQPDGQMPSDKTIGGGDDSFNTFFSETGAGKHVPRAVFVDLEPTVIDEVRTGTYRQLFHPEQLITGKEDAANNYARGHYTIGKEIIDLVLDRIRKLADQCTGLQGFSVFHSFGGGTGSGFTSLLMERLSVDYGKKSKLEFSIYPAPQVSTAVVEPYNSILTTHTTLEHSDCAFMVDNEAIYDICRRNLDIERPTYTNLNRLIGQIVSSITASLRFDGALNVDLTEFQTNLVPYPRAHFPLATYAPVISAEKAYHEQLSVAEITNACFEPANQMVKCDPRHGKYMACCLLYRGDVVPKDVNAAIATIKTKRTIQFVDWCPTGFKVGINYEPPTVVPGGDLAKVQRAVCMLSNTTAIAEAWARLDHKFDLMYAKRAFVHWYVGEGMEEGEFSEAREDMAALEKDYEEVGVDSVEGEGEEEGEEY
Tubulin (Sus scrofa), sequence (P02554 whole entry, looked up): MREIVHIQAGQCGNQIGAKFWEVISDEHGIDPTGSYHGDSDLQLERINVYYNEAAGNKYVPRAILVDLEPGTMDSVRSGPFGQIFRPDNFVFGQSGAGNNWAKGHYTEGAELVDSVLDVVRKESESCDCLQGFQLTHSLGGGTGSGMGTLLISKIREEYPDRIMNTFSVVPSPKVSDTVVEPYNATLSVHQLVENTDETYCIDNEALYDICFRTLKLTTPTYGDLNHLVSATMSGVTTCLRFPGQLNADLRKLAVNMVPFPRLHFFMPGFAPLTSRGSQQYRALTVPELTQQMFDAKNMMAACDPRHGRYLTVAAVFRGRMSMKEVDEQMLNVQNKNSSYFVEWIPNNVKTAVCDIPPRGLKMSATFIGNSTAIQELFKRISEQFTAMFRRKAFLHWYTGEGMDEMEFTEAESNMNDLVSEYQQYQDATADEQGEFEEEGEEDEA
The next test deals with NHDF. Put plainly: Growth inhibition of human NHDF cells after 5 days by MTT assay. The class given is cell-based. Particulars: 120 h.
The test system of a further test is PC-3. Nature of the test: Growth inhibition of human PC3 cells after 5 days by MTT assay. The class given is functional, cell-based. Particulars: PC-3, 120 h. On the technique in general: Tetrazolium dyes change colour on reduction, which living cells bring about.
A further test has as its system L929. Nature of the test: Growth inhibition of mouse L929 cells after 5 days by MTT assay. The class given is cell-based. Particulars: L929, 120 h.

Consider `COc1ccc(-c2ncn(C)c2-c2cc(F)c(OC)c(F)c2)cc1F`, for which the IC50 in test [1] came to 21000 nM; in test [2] it was 23000 nM; in the test with NHDF it was 52000 nM; in the test on PC-3 it was 16000 nM; in the test on L929 it was 31000 nM. Besides, the MIC in the test on HUVEC was 27 µM (≈ 9.4 µg/mL). The outcome in the test on PtK2 was inactive. Moreover, the inhibition result at Tubulin (Sus scrofa) is “inactive”.

As to `COc1ccc(-c2ncn(C)c2-c2cc(I)c(OC)c(OC)c2)cc1F`, the IC50 in test [1] is 90 nM; in test [2], 180 nM; with NHDF, 40 nM; in the test on L929, 40 nM. Besides, in the test on PtK2, the result was Active.

Turning to `COc1ccc(-c2ncn(C)c2-c2cc(F)c(OC)c(OC)c2)cc1F`, the IC50 came out at 2000 nM in test [1]; 5000 nM in test [2]; 7600 nM with NHDF; 1800 nM with PC-3; 10000 nM in the test on L929. Further, in the test with HUVEC, the MIC is 10 µM (≈ 3.6 µg/mL). The outcome with PtK2 was Active.

Turning to `COc1ccc(-c2ncn(C)c2-c2cc(Br)c(OC)c(OC)c2)cc1F`, the IC50 in test [1] worked out at 5 nM; in test [2], 440 nM; in the test with NHDF, 175 nM; with PC-3 it was 70 nM; in the test on L929, 25 nM. The MIC with HUVEC is 0.11 µM (≈ 0.0463 µg/mL). The result in the test on PtK2 was Active. The inhibition result on Tubulin (Sus scrofa) was “Active”.

Consider `COc1ccc(-c2c(-c3cc(Cl)c(OC)c(OC)c3)ncn2C)cc1N`, for which the IC50 is 16 nM in test [1], 70 nM in test [2], 970 nM in the test on NHDF and 135 nM with L929. Further, in the test with HUVEC, the MIC is 0.07 µM (≈ 0.0262 µg/mL). For the same compound, the result in the test on PtK2 was Active.

For the compound `COc1ccc(-c2ncn(C)c2-c2cc(I)c(OC)c(I)c2)cc1F`, the IC50 in test [1] was 3 nM; in test [2] it was 330 nM; with NHDF, 3300 nM; in the test on PC-3, 3 nM; in the test with L929 it was 18 nM. Further, the MIC with HUVEC is 0.08 µM (≈ 0.0451 µg/mL). Moreover, in the test on PtK2, the result was Active. For the same compound, the inhibition entry at Tubulin (Sus scrofa) was “Active”.

For the compound `COc1ccc(-c2ncn(C)c2-c2cc(Cl)c(OC)c(OC)c2)cc1F`, the half-maximal inhibitory concentration (IC50) in test [1] was 190 nM; in test [2] it was 480 nM; with NHDF it was 240 nM; with L929, 220 nM. The outcome with PtK2 was Active.

On to `COc1ccc(-c2ncn(C)c2-c2cc(Br)c(OC)c(Br)c2)cc1F`, for which the IC50 was 14 nM in test [1]; 1200 nM in test [2]; 400 nM with NHDF; 10 nM with PC-3; 4400 nM in the test with L929. Further, the MIC with HUVEC is 0.27 µM (≈ 0.127 µg/mL). The outcome in the test with PtK2 was Active. In addition, on Tubulin (Sus scrofa), the inhibition entry is “Active”.

Consider `COc1ccc(-c2ncn(C)c2-c2cc(Cl)c(OC)c(Cl)c2)cc1F`, for which the IC50 in test [1] was found to be 1150 nM; in test [2], 4300 nM; in the test on NHDF, 7180 nM; in the test on L929, 2400 nM. Also, the result in the test with PtK2 was Active.

Consider `COc1ccc(-c2c(-c3cc(OC)c(OC)c(OC)c3)ncn2C)cc1N`, for which the IC50 in test [1] stood at 70 nM; in test [2] it was 450 nM; with NHDF, 140 nM; in the test with PC-3, 90 nM; with L929, 220 nM. Further, the MIC in the test with HUVEC is 0.29 µM (≈ 0.107 µg/mL). For the same compound, in the test on PtK2, the outcome was Active. Also, the inhibition entry on Tubulin (Sus scrofa) was “Active”.

Usually IC50 stands for the concentration needed to halve the response being measured. Low readings indicate greater potency, high ones weaker potency. What is called MIC is the lowest concentration that inhibits growth of the organism.
